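Protocol summary: plate cells (96-well), add compound at 5 concentrations, incubate 48 h, interpolate endpoints linearly. TGI: concentration producing complete growth inhibition.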 Some results are limits rather than exact numbers.

Among the data in PubChem BioAssay (NCI) are TGI values, retold here.

What all share (assay): DTP human tumour cell line panel, 48 h
The test system of assay [1] is 786-0 renal.
Assay [2] concerns ACHN renal.
Assay [3] deals with BT-549 breast.
Assay [4] deals with CCRF-CEM leukemia.
For assay [5], the system named is HOP-92 NSCLC.
In assay [6] the test system is IGROV1 ovarian.
Assay [7] has as its system K-562 leukemia.
Assay [8] concerns M14 melanoma.
Assay [9] relates to MCF7 breast.
The test system of assay [10] is MDA-MB-231 breast.
For assay [11], the system named is MDA-MB-435.
The test system of assay [12] is NCI-H522 lung.
The subject of assay [13] is OVCAR-3 ovarian.
Assay [14] concerns OVCAR-4 ovarian.
Assay [15] deals with OVCAR-5 ovarian.
Assay [16] deals with SF-295 CNS.
For assay [17], the system named is SF-539 CNS.
Assay [18] concerns SK-MEL-5 melanoma.
In assay [19] the test system is U251 CNS.
The subject of assay [20] is UACC-257 melanoma.

`c1ccc(-c2cc(-c3cc(-c4ccccc4)no3)on2)cc1`: the TGI in assay [1] is above 100 µM; in [2] it was above 100 µM; in assay [3] it was above 100 µM; in assay [4], 78.8 µM; in assay [5], above 100 µM; in [6], above 100 µM. Further, the TGI in assay [7] was 49 µM; in assay [8] it was above 100 µM; in [9], above 100 µM; in [10], 74.8 µM; in assay [11], above 100 µM; in [12] it was above 100 µM. Further, the TGI in [13] was above 100 µM; in [14], 85.9 µM; in assay [15], above 100 µM; in assay [16] it was above 100 µM; in assay [17] it was 33.4 µM; in [18] it was above 100 µM. For the same compound, the TGI in assay [19] and in assay [20] was above 100 µM in each case.
On to `CC[C@@H]1C[C@@H](O)[C@@H]2[C@H](O)[C@H](O)CN2C1`, for which the TGI in [1], in assay [2], in assay [3], in assay [4], in assay [5] and in assay [6] was above 100 µM each time. In addition, the TGI in [7], in assay [8], in assay [9], in [10], in [11] and in assay [12] was above 100 µM throughout. The TGI in assay [13], in assay [14], in [15], in assay [16], in assay [17] and in [18] was above 100 µM in each case. Besides, the TGI in assay [19] and in assay [20] was above 100 µM in each case.
On to `CN(CCNC(=O)c1cc(-c2ccccc2)nc2ccccc12)CCNC(=O)c1cc(-c2ccccc2)nc2ccccc12`, for which the TGI in assay [1] was 23.5 µM; in assay [2] it was above 100 µM; in assay [3], above 100 µM; in assay [4], above 100 µM; in assay [5], 14.7 µM; in [6], above 100 µM. For the same compound, the TGI in assay [7] was above 36.7 µM; in assay [8], 4.66 µM; in [9], 42 µM; in assay [10], above 100 µM; in assay [11] it was 13.1 µM; in assay [12] it was above 47.5 µM. The TGI is above 100 µM in [13]; above 100 µM in [14]; above 55.7 µM in [15]; 90.5 µM in [16]; 21.3 µM in [17]; 5.7 µM in assay [18]. Moreover, the concentration for total growth inhibition (TGI) amounted to 30.9 µM in assay [19] and 10.2 µM in [20].
In the case of `Cc1c(C)c2ccc(O)cc2[nH]c1=O`, the TGI in assay [1], in assay [2], in assay [3], in [4], in [5] and in assay [6] was above 100 µM throughout. For the same compound, the TGI in assay [7], in [8], in assay [9], in assay [10], in assay [11] and in assay [13] was above 100 µM each time. The TGI in assay [14], in assay [15], in assay [16], in [17], in assay [18] and in [19] was above 100 µM throughout. This compound also gave a TGI in assay [20] above 100 µM.
In the case of `CC(C)(Cc1ccccc1)Cc1cc(O)ccc1O`, the TGI was 29 µM in assay [1]; 66.1 µM in [2]; 74.1 µM in assay [3]; 36.7 µM in [4]; 36.5 µM in assay [5]; above 100 µM in assay [6]. In addition, the TGI in assay [7] is 44.2 µM; in assay [8], 37.4 µM; in assay [9], 86.5 µM; in assay [10], 39.2 µM; in assay [11], 49.2 µM; in [12] it was 17.1 µM. The TGI in assay [13] was found to be 25.3 µM; in assay [14], 91.9 µM; in [15], 88.8 µM; in [16], 73.5 µM; in assay [17] it was 27.1 µM; in assay [19] it was 32.2 µM. Also, in [20], the TGI was 29.5 µM.
For `CC1CC(=O)NC2CC1C2(C)C` (stereo unspecified), the TGI in [1], in [2], in assay [3], in assay [4], in [5] and in assay [6] was above 100 µM throughout. In addition, the TGI in assay [7], in [8], in assay [9], in assay [10], in assay [11] and in assay [12] was above 100 µM in each case. Further, the TGI in assay [13], in assay [14], in assay [15], in assay [16], in [18] and in assay [19] was above 100 µM throughout. The compound further returned a TGI in [20] above 100 µM.
As to `C=C1C(=O)O[C@H]2[C@H]3O[C@@H](C[C@@H]12)[C@](C)(O)CCCC(C)=CCC[C@H]3C`, the TGI was above 100 µM in [1]; 21.7 µM in [2]; 3.07 µM in [3]; 3.24 µM in [4]; 8.45 µM in assay [5]; 5.05 µM in assay [6]. In addition, the TGI is 64.7 µM in [7]; 29.8 µM in assay [9]; 35.8 µM in [10]; 15.8 µM in [11]; 17.3 µM in [12]; 27.5 µM in assay [13]. Further, the TGI amounted to 39 µM in [14]; 31.1 µM in [15]; 31.7 µM in [16]; 26.9 µM in assay [17]; 31.1 µM in [18]; 29.8 µM in assay [19]. Besides, the TGI in assay [20] turned out to be 22.7 µM.
For `C[C@]12CCC(=O)C=C1CC[C@@H]1[C@@H]2CC[C@]2(C)C(=O)/C(=C\c3ccccc3)C[C@@H]12`, the TGI in assay [1] is above 66.8 µM; in assay [2], above 100 µM; in assay [3], 72.6 µM; in assay [4], 23.3 µM; in assay [5], above 86.8 µM; in [6] it was above 100 µM. Further, the TGI in [7] is above 100 µM; in [8] it was above 66.2 µM; in assay [9] it was above 56.1 µM; in assay [10], above 100 µM; in assay [11], above 100 µM; in assay [13], above 77.1 µM. In addition, the TGI in [14] is above 100 µM; in assay [15] it was above 100 µM; in assay [16], above 80.3 µM; in [17], above 63.6 µM; in assay [18], above 48.6 µM; in assay [19], above 69.4 µM. Moreover, the TGI in [20] is above 100 µM.
As to `COc1ccc2nc(-c3ccc(O)cc3)cn2c1`, the concentration for total growth inhibition (TGI) in [1], in assay [2], in assay [3], in assay [4], in assay [5] and in assay [6] was above 100 µM each time. In addition, the TGI in assay [7], in assay [8], in assay [9], in [10], in assay [11] and in assay [12] was above 100 µM in each case. Further, the TGI in assay [13] was above 100 µM; in assay [14], above 100 µM; in assay [15], above 100 µM; in [16], above 100 µM; in assay [17], above 100 µM; in assay [18] it was 62.6 µM. This compound came in with a TGI in [19] above 100 µM.
Take `O=C1/C(=C/c2cccc([N+](=O)[O-])c2)N=C(c2ccccc2)N1c1ccc2c(c1)Sc1cc(N3C(=O)/C(=C/c4cccc([N+](=O)[O-])c4)N=C3c3ccccc3)ccc1N2`: the TGI in [1] is 46.3 µM; in assay [2] it was above 100 µM; in assay [3], 52.4 µM; in [4], 55.3 µM; in assay [5], 85.2 µM; in [6] it was 45.3 µM. Further, the TGI in assay [7] was 96.7 µM; in assay [8], 87.9 µM; in [9] it was 37.9 µM; in assay [10] it was 89.8 µM; in assay [11], 34.5 µM; in assay [12], 41.9 µM. Also, the TGI was 28.4 µM in assay [13]; 34.5 µM in [14]; 35.8 µM in assay [15]; 32.6 µM in assay [16]; 31 µM in [18]; 66.5 µM in [19]. In assay [20], the TGI is 37.5 µM.
Take `CO/N=C/c1c(-c2ccc(Cl)cc2)c(/C=N/OC)n2c1sc1ccccc12`: the TGI in assay [1], in assay [2], in [3], in assay [4], in assay [5] and in assay [6] was above 100 µM each time. Also, the TGI in [7], in [9], in [10], in [11], in [12] and in assay [13] was above 100 µM in each case. The TGI in assay [14], in [15], in [16], in assay [18], in assay [19] and in assay [20] was above 100 µM throughout.
As for `CCCC[Si](CCCC)(CCCC)O[C@@H](/C=C/C(=O)OCC)[C@H](Cc1ccccc1)O[Si](CCCC)(CCCC)CCCC`, the TGI in assay [1], in assay [2], in [3], in assay [4], in assay [5] and in [6] was above 100 µM in each case. Besides, the TGI in assay [7], in assay [9], in assay [10], in assay [11], in assay [12] and in assay [14] was above 100 µM throughout. Further, the TGI in assay [15], in assay [16], in assay [17], in [19] and in assay [20] was above 100 µM each time.
Regarding `CC[C@]12C=CCN3CCC4(c5cc(N=Nc6ccc([N+](=O)[O-])cc6)c(OC)cc5N(C)[C@H]4[C@@](O)(C(=O)OC)[C@@H]1OC(C)=O)[C@@H]32` (stereo partly specified), the concentration for total growth inhibition (TGI) in assay [1] is 25.1 µM; in assay [2], 67.8 µM; in assay [3], above 100 µM; in [4], 26.6 µM; in assay [5] it was 8.62 µM; in assay [6], 33.2 µM. Moreover, the TGI in [7] was 34.6 µM; in [8] it was 40.5 µM; in assay [9] it was above 100 µM; in assay [10] it was 35.9 µM; in assay [11] it was 31.6 µM; in assay [13], 16.8 µM. The TGI in assay [14] is above 100 µM; in assay [15] it was 28.2 µM; in [16], 30.8 µM; in assay [17] it was 45.8 µM; in assay [18], 50.1 µM; in assay [19], 27.4 µM. The TGI in assay [20] was 56.5 µM.
As for `Clc1ccc(-c2cc(-c3nc4ccccc4[nH]3)no2)cc1`, the TGI in assay [1] is 59 µM; in [2], 36.9 µM; in [3], 45.5 µM; in assay [4], 57.4 µM; in assay [5] it was 66.7 µM; in assay [6] it was 62.1 µM. The TGI in assay [7] worked out at 50.2 µM; in assay [8] it was 34.6 µM; in assay [9], 31 µM; in [10] it was 35.5 µM; in assay [11] it was 31.6 µM; in assay [12], 42.8 µM. For the same compound, the TGI turned out to be 35.7 µM in assay [13]; 51.4 µM in [14]; 40.8 µM in assay [15]; 33 µM in assay [16]; 74.3 µM in assay [17]; 34.7 µM in assay [18]. In assay [20], the total growth inhibition concentration (TGI) was determined as 36.4 µM.

A word on the TGI: it is the concentration giving total growth inhibition. Read a high TGI as lower sensitivity of the cells.
